# Like-named read-outs stand apart in the source and are kept apart here.
# What was measured:
# mMC3R = mMC3R (Mus musculus, UniProt P33033); test: cAMP based functional bioassay (CRE/β-galactosidase reporter), agonist activity at mMC3R; conditions: for mMC3R Activity @ 10 μM (class) / mMC3R Activity @ 10 μM (relative activity, percent): reported where receptor not activated to full activity
# Protocol: (§1) The compounds were evaluated using a whole cell assay.
# (§2) Compounds were dissolved in DMSO at a stock concentration of 10^−2 M and stored at −20° C. until assayed. HEK-293 cells stably expressing the selected melanocortin receptors were transiently transfected with 4 μg of CRE/β-galactosidase reporter gene. Briefly, 5000-15000 post transfection cells were plated into collagen treated 96-well plates (Nunc) and incubated overnight. […] The assay media was aspirated, and 50 μL of lysis buffer (250 mM Tris-HCl pH=8.0 and 0.1% Triton X-100) was added. The plates were stored at −80° C. overnight. The plates containing the cell lysates were thawed the following day. Aliquots of 10 μL were taken from each well and transferred to another 96-well plate for relative protein determination. To the cell lysate plates, 40 μL of phosphate-buffered saline with 0.5% BSA was added to each well. Subsequently, 150 μL of substrate buffer (60 mM sodium phosphate, 1 mM MgCl2, 10 mM KCl, 5 mM β-mercaptoethanol, 2 mg/mL ONPG) was added to each well and the plates were incubated at 37° C. The sample absorbance, OD405, was measured using a 96-well plate reader (Molecular Devices). The relative protein was determined by adding 200 μL of 1:5 dilution BioRad G250 protein dye:water to the 10 μL of cell lysate sample taken previously, and the OD595 was measured on a 96-well plate reader (Molecular Devices). Data points were normalized to forskolin and the relative protein content were used as positive controls. The EC50 values represent the mean of three or more independent experiments. The EC50 estimates, and their associated standard errors of the mean, were determined by fitting the data to a nonlinear least-squares analysis using the PRISM program (v4.0, GraphPad Inc.).
# (§3) The results are tabulated in the form of EC50 values. In the case where the particular receptor was not activated to full activity at 100,000 nM, then the relative activity was reported.
# mMC5R = mMC5R (Mus musculus, UniProt P41149); test: cAMP based functional bioassay (CRE/β-galactosidase reporter), agonist activity at mMC5R; conditions: for mMC5R Activity @ 10 μM (class) / mMC5R Activity @ 10 μM (relative activity, percent): reported where receptor not activated to full activity
# mMC5R, sequence (P41149 whole entry): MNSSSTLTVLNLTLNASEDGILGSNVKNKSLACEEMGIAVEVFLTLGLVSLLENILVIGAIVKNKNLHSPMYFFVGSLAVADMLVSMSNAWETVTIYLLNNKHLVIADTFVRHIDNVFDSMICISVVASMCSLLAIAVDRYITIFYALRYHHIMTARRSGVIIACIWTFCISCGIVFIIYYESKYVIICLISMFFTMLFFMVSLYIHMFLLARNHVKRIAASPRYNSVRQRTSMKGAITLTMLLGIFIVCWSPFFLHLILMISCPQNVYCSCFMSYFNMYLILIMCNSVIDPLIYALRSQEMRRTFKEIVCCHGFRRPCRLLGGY
# Protocol: as §1, §2, §3
# mMC1R = mMC1R (Mus musculus, UniProt Q01727); test: cAMP based functional bioassay (CRE/β-galactosidase reporter), agonist activity at mMC1R; conditions: for mMC1R Activity @ 10 μM (class) / mMC1R Activity @ 10 μM (relative activity, percent): reported where receptor not activated to full activity
# mMC1R, sequence (Q01727 whole entry): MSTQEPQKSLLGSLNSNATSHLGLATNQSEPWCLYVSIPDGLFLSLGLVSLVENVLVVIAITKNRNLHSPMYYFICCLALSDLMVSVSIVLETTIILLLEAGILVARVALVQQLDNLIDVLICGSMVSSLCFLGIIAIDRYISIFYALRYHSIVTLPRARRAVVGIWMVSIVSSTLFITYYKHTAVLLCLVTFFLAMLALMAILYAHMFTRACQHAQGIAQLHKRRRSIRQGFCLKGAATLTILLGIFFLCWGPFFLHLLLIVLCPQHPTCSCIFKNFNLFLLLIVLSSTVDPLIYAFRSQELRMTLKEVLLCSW
# Protocol: as §1, §2, §3
# mMC4R = mMC4R (Mus musculus, UniProt P56450); test: cAMP based functional bioassay (CRE/β-galactosidase reporter), agonist activity at mMC4R; conditions: for mMC4R Activity @ 10 μM (class) / mMC4R Activity @ 10 μM (relative activity, percent): reported where receptor not activated to full activity
# mMC4R, sequence (P56450 whole entry): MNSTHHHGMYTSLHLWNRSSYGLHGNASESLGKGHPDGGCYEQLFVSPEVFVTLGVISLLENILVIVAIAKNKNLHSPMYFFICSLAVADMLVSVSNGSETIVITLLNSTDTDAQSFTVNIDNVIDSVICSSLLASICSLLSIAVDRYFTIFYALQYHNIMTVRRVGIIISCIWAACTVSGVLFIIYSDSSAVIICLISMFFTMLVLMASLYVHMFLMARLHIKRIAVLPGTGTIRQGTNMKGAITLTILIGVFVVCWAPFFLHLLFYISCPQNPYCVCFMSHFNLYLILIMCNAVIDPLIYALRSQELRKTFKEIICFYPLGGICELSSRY
# Protocol: as §1, §2, §3
# mMC3R, sequence (P33033 whole entry): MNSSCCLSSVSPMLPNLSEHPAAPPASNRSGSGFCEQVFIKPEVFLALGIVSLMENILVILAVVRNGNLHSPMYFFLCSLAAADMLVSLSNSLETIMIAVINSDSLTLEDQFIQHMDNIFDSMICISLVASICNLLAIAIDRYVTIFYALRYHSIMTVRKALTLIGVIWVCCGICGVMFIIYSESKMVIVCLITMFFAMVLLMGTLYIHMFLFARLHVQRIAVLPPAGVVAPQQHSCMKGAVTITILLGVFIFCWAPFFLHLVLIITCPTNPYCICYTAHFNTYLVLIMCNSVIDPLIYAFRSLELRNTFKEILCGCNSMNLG
SMILES,mMC3R Activity @ 10 μM (class) (mMC3R),"mMC3R Activity @ 10 μM (relative activity, percent) (mMC3R)",EC50 (mMC5R),mMC1R Activity @ 10 μM (class) (mMC1R),mMC4R Activity @ 10 μM (class) (mMC4R),"mMC4R Activity @ 10 μM (relative activity, percent) (mMC4R)",EC50 (mMC1R),further results
"CC(C)CCCN1C(=N)N([C@H](CC2CCCCC2)CN2CCC[C@H]2CN2C(=N)NC[C@H]2C(C)C)C[C@H]1C(C)C [TPI 2509-30, (R)-1-((R)-1-cyclohexyl-3-((S)-2-(((R)-2-imino-5-isopropylimidazolidin-1-yl)methyl)pyrrolidin-1-yl)propan-2-yl)-4-isopropyl-3-(4-methylpentyl)imidazolidin-2-imine]",B (B: >51%),–,1700 ± 520 nM,–,B (B: >51%),–,6100 nM,–
"CC(C)C[C@@H]1CNC(=N)N1C[C@@H]1CCCN1C[C@@H](Cc1ccccc1)N1C[C@@H](C(C)C)N(CC2CCC(C(C)(C)C)CC2)C1=N (stereo partly drawn) [TPI 2509-20, (R)-3-((4-(tert-butyl)cyclohexyl)methyl)-1-((R)-1-((S)-2-(((R)-2-imino-5-isobutylimidazolidin-1-yl)methyl)pyrrolidin-1-yl)-3-phenylpropan-2-yl)-4-isopropylimidazolidin-2-imine]",B (B: >51%),62%,560 ± 170 nM,–,–,–,6800 ± 600 nM,–
"CCC[C@@H]1CN([C@H](Cc2ccccc2)CN2CCC[C@H]2CN2C(=N)NC[C@H]2C(C)C)C(=N)N1CCCC(C)C [TPI 2509-36, (R)-1-((R)-1-((S)-2-(((R)-2-imino-5-isopropylimidazolidin-1-yl)methyl)pyrrolidin-1-yl)-3-phenylpropan-2-yl)-3-(4-methylpentyl)-4-propylimidazolidin-2-imine]",–,–,2030 ± 980 nM,–,A (A: <50%),41%,22900 ± 10000 nM,–
CCC[C@@H]1CN([C@H](CC2CCCCC2)CN2CCC[C@H]2CN2C(=N)NC[C@H]2CC(C)C)C(=N)N1CC12CC3CC(CC(C3)C1)C2 [TPI 2509-7],B (B: >51%),67%,470 ± 90 nM,B (B: >51%),A (A: <50%),51%,–,"mMC1R Activity @ 10 μM (relative activity, percent) (mMC1R): 70%"
"CCC[C@@H]1CN([C@H](Cc2ccccc2)CN2CCC[C@H]2CN2C(=N)NC[C@H]2CC(C)C)C(=N)N1CCCC(C)C [TPI 2509-18, (R)-1-((R)-1-((S)-2-(((R)-2-imino-5-isobutylimidazolidin-1-yl)methyl)pyrrolidin-1-yl)-3-phenylpropan-2-yl)-3-(4-methylpentyl)-4-propylimidazolidin-2-imine]",–,–,2180 ± 625 nM,–,B (B: >51%),–,–,–
"CC(C)CCCN1C(=N)N([C@H](Cc2ccccc2)CN2CCC[C@H]2CN2C(=N)NC[C@H]2C(C)C)C[C@H]1[C@@H](C)O [TPI 2509-33, (R)-1-((S)-2-imino-1-((R)-1-((S)-2-(((R)-2-imino-5-isopropylimidazolidin-1-yl)methyl)pyrrolidin-1-yl)-3-phenylpropan-2-yl)-3-(4-methylpentyl)imidazolidin-4-yl)ethanol]",–,–,–,B (B: >51%),–,–,–,"mMC5R Activity @ 10 μM (class) (mMC5R): A (A: <50%); mMC5R Activity @ 10 μM (relative activity, percent) (mMC5R): 40%"
CC(C)CCCN1C(=N)N([C@H](CC2CCCCC2)CN2CCC[C@H]2CN2C(=N)NC[C@H]2CC(C)C)C[C@H]1C(C)C [TPI 2509-12],A (A: <50%),33%,1850 ± 800 nM,B (B: >51%),B (B: >51%),–,–,"mMC1R Activity @ 10 μM (relative activity, percent) (mMC1R): 50%"
"CCC[C@@H]1CN([C@H](Cc2ccccc2)CN2CCC[C@H]2CN2C(=N)NC[C@H]2C(C)C)C(=N)N1CC1CCC(C(C)(C)C)CC1 (stereo partly drawn) [TPI 2509-35, (R)-3-((4-(tert-butyl)cyclohexyl)methyl)-1-((R)-1-((S)-2-(((R)-2-imino-5-isopropylimidazolidin-1-yl)methyl)pyrrolidin-1-yl)-3-phenylpropan-2-yl)-4-propylimidazolidin-2-imine]",–,–,940 ± 340 nM,–,A (A: <50%),27%,2300 ± 1000 nM,EC50 (mMC3R): 6200 ± 5400 nM
CC(C)C[C@@H]1CNC(=N)N1C[C@@H]1CCCN1C[C@@H](CC1CCCCC1)N1C[C@@H](C(C)C)N(CC23CC4CC(CC(C4)C2)C3)C1=N [TPI 2509-10],B (B: >51%),70%,500 ± 40 nM,–,A (A: <50%),50%,570 ± 150 nM,–
"CC(=O)N[C@@H](Cc1c[nH]cn1)C(=O)N[C@H](Cc1ccccc1)C(=O)N[C@@H](CCCNC(=N)N)C(=O)N[C@@H](Cc1c[nH]c2ccccc12)C(N)=O [Ac-His-DPhe-Arg-Trp-NH2, reference compound]",–,–,–,–,–,–,–,"EC50 (mMC5R; read-out: mMC5R Mean ± SEM (agonist EC50), HEK-293 cells, mean of three or more experiments): 4.2 ± 1 nM; EC50 (mMC4R; read-out: mMC4R Mean ± SEM (agonist EC50), HEK-293 cells, mean of three or more experiments): 5.5 ± 0.8 nM"
"CC(C)CCCN1C(=N)N([C@H](CC2CCCCC2)CN2CCC[C@H]2CN2C(=N)NC[C@H]2C(C)C)C[C@H]1[C@@H](C)O [TPI 2509-24, (R)-1-((S)-1-((R)-1-cyclohexyl-3-((S)-2-(((R)-2-imino-5-isopropylimidazolidin-1-yl)methyl)pyrrolidin-1-yl)propan-2-yl)-2-imino-3-(4-methylpentyl)imidazolidin-4-yl)ethanol]",–,–,740 ± 270 nM,–,–,–,700 ± 80 nM,EC50 (mMC3R): 5200 ± 1540 nM

# The next lines start with results.
mMC3R Activity @ 10 μM (class) (mMC3R),"mMC3R Activity @ 10 μM (relative activity, percent) (mMC3R)",EC50 (mMC5R),mMC1R Activity @ 10 μM (class) (mMC1R),mMC4R Activity @ 10 μM (class) (mMC4R),"mMC4R Activity @ 10 μM (relative activity, percent) (mMC4R)",EC50 (mMC1R),SMILES,further results
B (B: >51%),83%,480 ± 170 nM,A (A: <50%),A (A: <50%),28%,–,CCC[C@@H]1CN([C@H](Cc2ccccc2)CN2CCC[C@H]2CN2C(=N)NC[C@H]2CC(C)C)C(=N)N1CC1CCC(C(C)(C)C)CC1 (stereo partly shown) [TPI 2509-17],"mMC1R Activity @ 10 μM (relative activity, percent) (mMC1R): 38%"
A (A: <50%),–,1260 ± 130 nM,–,A (A: <50%),–,–,"CC(C)CCCN1C(=N)N([C@H](Cc2ccccc2)CN2CCC[C@H]2CN2C(=N)NC[C@H]2CC(C)C)C[C@H]1C(C)C [TPI 2509-21, (R)-1-((R)-1-((S)-2-(((R)-2-imino-5-isobutylimidazolidin-1-yl)methyl)pyrrolidin-1-yl)-3-phenylpropan-2-yl)-4-isopropyl-3-(4-methylpentyl)imidazolidin-2-imine]",–
–,–,–,B (B: >51%),–,–,–,"CC(C)CCCN1C(=N)N([C@H](Cc2ccccc2)CN2CCC[C@H]2CN2C(=N)NC[C@H]2CC(C)C)C[C@H]1[C@@H](C)O [TPI 2509-15, (R)-1-((S)-2-imino-1-((R)-1-((S)-2-(((R)-2-imino-5-isobutylimidazolidin-1-yl)methyl)pyrrolidin-1-yl)-3-phenylpropan-2-yl)-3-(4-methylpentyl)imidazolidin-4-yl)ethanol]","mMC5R Activity @ 10 μM (class) (mMC5R): B (B: >51%); mMC5R Activity @ 10 μM (relative activity, percent) (mMC5R): 77%; mMC1R Activity @ 10 μM (relative activity, percent) (mMC1R): 62%"
–,–,1600 ± 460 nM,–,A (A: <50%),21%,10200 ± 6570 nM,"CC(C)CCCN1C(=N)N([C@H](Cc2ccccc2)CN2CCC[C@H]2CN2C(=N)NC[C@H]2C(C)C)C[C@H]1C(C)C [TPI 2509-39, (R)-1-((R)-1-((S)-2-(((R)-2-imino-5-isopropylimidazolidin-1-yl)methyl)pyrrolidin-1-yl)-3-phenylpropan-2-yl)-4-isopropyl-3-(4-methylpentyl)imidazolidin-2-imine]",–
B (B: >51%),68%,600 ± 170 nM,–,–,–,29100 ± 20000 nM,"CC(C)[C@@H]1CNC(=N)N1C[C@@H]1CCCN1C[C@@H](Cc1ccccc1)N1C[C@@H](C(C)C)N(CC2CCC(C(C)(C)C)CC2)C1=N (stereo partly drawn) [TPI 2509-38, (R)-3-((4-(tert-butyl)cyclohexyl)methyl)-1-((R)-1-((S)-2-(((R)-2-imino-5-isopropylimidazolidin-1-yl)methyl)pyrrolidin-1-yl)-3-phenylpropan-2-yl)-4-isopropylimidazolidin-2-imine]",–
B (B: >51%),69%,560 ± 50 nM,B (B: >51%),–,–,–,"CC(C)C[C@@H]1CNC(=N)N1C[C@@H]1CCCN1C[C@@H](CC1CCCCC1)N1C[C@@H](C(C)C)N(CC2CCC(C(C)(C)C)CC2)C1=N (stereo partly drawn) [TPI 2509-11, (R)-3-((4-(tert-butyl)cyclohexyl)methyl)-1-((R)-1-cyclohexyl-3-((S)-2-(((R)-2-imino-5-isobutylimidazolidin-1-yl)methyl)pyrrolidin-1-yl)propan-2-yl)-4-isopropylimidazolidin-2-imine]","mMC1R Activity @ 10 μM (relative activity, percent) (mMC1R): 54%"
